The values that follow come from patent US5624673A, “Cosmetic or pharmaceutical composition containing a prunella extract” (priority 1993, dated 1997).

This experiment relates to erythema caused by ultraviolet. As to the kind of experiment: Anti-inflammatory activity on the erythema caused by ultraviolet. The note with it: 1% in hydrocerine. The format is in vivo, Dunkin Hartley guinea-pigs. As for the experimental part: This is investigated using 41 female Dunkin Hartley guinea-pigs weighing 400 to 450 g, divided into 6 groups of 6 and one group of 5 guinea-pigs.
For one week before the start of the experiment, the animals are kept at a temperature of 20° plus or minus 1° C. and at a hygrometry of 50% plus or minus 10% and with 12 h of light per day. On the day before the experiment, the animals are carefully shaved on the back using an AESCULAP shaver equipped with a 1/10 mm comb, and then shaved gently on both sides using a Braun razor. A depilating cream is subsequently applied (to a thickness of about 2 mm) and allowed to work for 15 min.
The cream is removed with a wooden spatula and the guinea-pigs are then rinsed with tepid water and dried.
The guinea-pigs then receive the same irradiation on both sides, the area of the irradiated regions being 2 cm^2. The right side receives the test product, the product being spread beyond the 2 cm^2 so as to make it possible to observe any redness which might be due to the product and which would mask an antiphlogistic effect. The left side receives the placebo.
Application of the placebo to the left side enables the effect of UV to be measured under the same conditions on the zones treated with the product and on the untreated zones. This also makes it possible to see any action of the placebo and to assess, in comparison with the placebo, the zone to which the product has been applied.
The products are applied immediately after irradiation and then every 2 h up to 6 h after irradiation.
The amount applied is not measured but is spread uniformly over the whole region (about 1 mg).
The irradiation device used consists of a Biotronic UV312-365 mercury lamp (Vilbert-Loumat). The device for measuring the UV energy, which consists of a photoelectric cell measuring the luminous power of the UV, is fixed to a support at the center of the irradiated zone. This cell is connected to a radiometer on which the desired energy--in this case 2.16 J/cm^2 of UVB (distance from guinea-pig to lamp=20 cm)--is programmed. The lamp switches off automatically once the total amount of energy has been emitted.
This irradiation causes an erythema equal to 3 plus or minus 0.5 (see scale) at 6 h.
20 min before irradiation, the animals are anesthetized with an intraperitoneal dose of 0.5 ml/kg of pentobarbital sodium.
Six hours after irradiation, the erythema in each region is evaluated macroscopically according to the following scale:
0 ............... no erythema
1 ............... slight but visible erythema
2 ............... clearly visible erythema
3 ............... substantial erythema
One guinea-pig with a score of 1 according to the above notation, one guinea-pig with a score of 2 and one guinea-pig with a score of 3 are singled out after having been thoroughly evaluated as such, and are taken as standard references so that half-unit scores can be awarded. A guinea-pig not evaluated with 1 (standard reference) and not evaluated with 2 will be given a score of 1.5.
The results obtained are used to calculate the percentage activity according to the following formula: [formula]
The tested extracts according to the invention are in a concentration of 0.2% by weight in the gel. The indomethacin is in a concentration of 1% in the hydrocerine.

Where “and” joins values, the source holds several entries; their conditions need not be identical. Equal entries are not always repeated.

On to `COc1ccc2c(c1)c(CC(=O)O)c(C)n2C(=O)c1ccc(Cl)cc1` [Indomethacin, indomethacin], for which the “difference (UV+placebo)-(UV+product), individual animal” value is 2.5 and 2 and 3. Moreover, for the setting “6 h after UVB 2.16 J/cm^2, scale 0-3”, the “Erythema score, product side (individual animal)” value was 0.5 and 1 and 0. In addition, the “Erythema score, product side, mean” value (SD 0.41, placebo mean 2.9, significant at 0.1% (Student t 11.18)) turned out to be 0.4. Under “SD 0.5”, the “difference (UV+placebo)-(UV+product), mean” value is 2.5. Further, the “protection (percentage activity)” value (significant at 0.1%) was found to be 86.2%.
